≈ marks a conversion by molar mass, not a printed value.
Columns and labels:
[1] = test system: Acinetobacter baumannii; assay: Potentiation of rifampicin-induced antibacterial activity against multidrug resistant Acinetobacter baumannii LAC-4 assessed as fold change in rifampicin MIC at 1/4 MIC in low salt containing media by Mueller-Hinton broth based assay; type: functional
[2] = test system: Escherichia coli; assay: Potentiation of rifampicin-induced antibacterial activity against Escherichia coli […] assessed as rifampicin MIC at 2 to 8 microg/ml in high concentration of Ca++ and Mg++ containing media by Mueller-Hinton broth based assay; type: functional; details: dose 2-8 µg/ml
[3] = test system: Acinetobacter baumannii; assay: Potentiation of rifampicin-induced antibacterial activity against multidrug resistant Acinetobacter baumannii AB031 assessed as fold change in rifampicin MIC at 1/4 MIC in low salt containing media by Mueller-Hinton broth based assay; type: functional
[4] = test system: Pseudomonas aeruginosa; assay: Antibacterial activity against Pseudomonas aeruginosa PA262 in high concentration of Ca++ and Mg++ containing media by Mueller-Hinton broth based assay; type: functional
[5] = test system: Escherichia coli; assay: Potentiation of rifampicin-induced antibacterial activity against Escherichia coli ATCC 25922 assessed as fold change in rifampicin MIC at 16 microg/ml in high concentration of Ca++ and Mg++ containing media by Mueller-Hinton broth based assay; type: functional; details: dose 16 µg/ml
[6] = test system: Escherichia coli; assay: Antibacterial activity against Escherichia coli […] in high concentration of Ca++ and Mg++ containing media by Mueller-Hinton broth based assay; type: functional
[7] = test system: Escherichia coli; assay: Potentiation of rifampicin-induced antibacterial activity against Escherichia coli […] assessed as rifampicin MIC at 16 microg/ml in high concentration of Ca++ and Mg++ containing media by Mueller-Hinton broth based assay; type: functional; details: dose 16 µg/ml
[8] = test system: Acinetobacter baumannii; assay: Potentiation of rifampicin-induced antibacterial activity against Acinetobacter baumannii ATCC 17978 assessed as rifampicin MIC at 16 microg/ml in high concentration of Ca++ and Mg++ containing media by Mueller-Hinton broth based assay; type: functional; details: dose 16 µg/ml
[9] = test system: Acinetobacter baumannii; assay: Potentiation of rifampicin-induced antibacterial activity against multidrug resistant Acinetobacter baumannii clinical isolate 92247 assessed as fold change in rifampicin MIC at 1/4 MIC in low salt containing media by Mueller-Hinton broth based assay; type: functional
[10] = test system: Acinetobacter baumannii; assay: Potentiation of rifampicin-induced antibacterial activity against Acinetobacter baumannii ATCC 17978 assessed as fold change in rifampicin MIC in low salt containing media by Mueller-Hinton broth based assay; type: functional
[11] = test system: Escherichia coli; assay: Potentiation of rifampicin-induced antibacterial activity against Escherichia coli ATCC 25922 assessed as rifampicin MIC at 16 microg/ml in high concentration of Ca++ and Mg++ containing media by Mueller-Hinton broth based assay; type: functional; details: dose 16 µg/ml
[12] = test system: Escherichia coli; assay: Potentiation of rifampicin-induced antibacterial activity against Escherichia coli […] assessed as fold change in rifampicin MIC at 16 microg/ml in high concentration of Ca++ and Mg++ containing media by Mueller-Hinton broth based assay; type: functional; details: dose 16 µg/ml
[13] = test system: Pseudomonas aeruginosa; assay: Potentiation of rifampicin-induced antibacterial activity against Pseudomonas aeruginosa PA262 assessed as fold change in rifampicin MIC at 2 to 8 microg/ml in high concentration of Ca++ and Mg++ containing media by Mueller-Hinton broth based assay; type: functional; details: dose 2-8 µg/ml
[14] = test system: Acinetobacter baumannii; assay: Potentiation of rifampicin-induced antibacterial activity against Acinetobacter baumannii ATCC 17978 assessed as fold change in rifampicin MIC at 16 microg/ml in high concentration of Ca++ and Mg++ containing media by Mueller-Hinton broth based assay; type: functional; details: dose 16 µg/ml
[15] = Cytotoxicity against HEK293 cells assessed as cell viability at 9 uM relative to control; type: toxicity, cell-based; details: human, read-out: Activity
[16] = test system: Escherichia coli; assay: Potentiation of rifampicin-induced antibacterial activity against Escherichia coli clinical isolate 107115 assessed as fold change in rifampicin MIC at 1/4 MIC in low salt containing media by Mueller-Hinton broth based assay; type: functional
[17] = test system: Escherichia coli; assay: Potentiation of rifampicin-induced antibacterial activity against Escherichia coli clinical isolate 94474 assessed as fold change in rifampicin MIC at 1/4 MIC in low salt containing media by Mueller-Hinton broth based assay; type: functional
[18] = test system: Acinetobacter baumannii; assay: Potentiation of rifampicin-induced antibacterial activity against multidrug resistant Acinetobacter baumannii clinical isolate 110193 assessed as fold change in rifampicin MIC at 1/4 MIC in low salt containing media by Mueller-Hinton broth based assay; type: functional
[19] = test system: Pseudomonas aeruginosa; assay: Potentiation of rifampicin-induced antibacterial activity against Pseudomonas aeruginosa PAO1 assessed as fold change in rifampicin MIC in low salt containing media by Mueller-Hinton broth based assay; type: functional
[20] = test system: Acinetobacter baumannii; assay: Potentiation of rifampicin-induced antibacterial activity against Acinetobacter baumannii ATCC 17978 assessed as fold change in rifampicin MIC at 2 to 8 microg/ml in high concentration of Ca++ and Mg++ containing media by Mueller-Hinton broth based assay; type: functional; details: dose 2-8 µg/ml
[21] = test system: Pseudomonas aeruginosa; assay: Potentiation of rifampicin-induced antibacterial activity against Pseudomonas aeruginosa PAO1 assessed as fold change in rifampicin MIC at 2 to 8 microg/ml in high concentration of Ca++ and Mg++ containing media by Mueller-Hinton broth based assay; type: functional; details: dose 2-8 µg/ml
[22] = test system: Escherichia coli; assay: Potentiation of rifampicin-induced antibacterial activity against Escherichia coli ATCC 25922 assessed as rifampicin MIC at 2 to 8 microg/ml in high concentration of Ca++ and Mg++ containing media by Mueller-Hinton broth based assay; type: functional; details: dose 2-8 µg/ml
[23] = test system: Escherichia coli; assay: Antibacterial activity against Escherichia coli ATCC 25922 in high concentration of Ca++ and Mg++ containing media by Mueller-Hinton broth based assay; type: functional
[24] = test system: Escherichia coli; assay: Potentiation of rifampicin-induced antibacterial activity against Escherichia coli ATCC 25922 assessed as fold change in rifampicin MIC at 2 to 8 microg/ml in high concentration of Ca++ and Mg++ containing media by Mueller-Hinton broth based assay; type: functional; details: dose 2-8 µg/ml
[25] = Cytotoxicity against human HepG2 cells assessed as cell viability at 9 uM relative to control; type: toxicity, cell-based; details: read-out: Activity
[26] = test system: Acinetobacter baumannii; assay: Antibacterial activity against Acinetobacter baumannii ATCC 17978 in high concentration of Ca++ and Mg++ containing media by Mueller-Hinton broth based assay; type: functional
[27] = test system: Acinetobacter baumannii; assay: Potentiation of rifampicin-induced antibacterial activity against Acinetobacter baumannii ATCC 17978 assessed as rifampicin MIC in low salt containing media by Mueller-Hinton broth based assay; type: functional
[28] = test system: Acinetobacter baumannii; assay: Potentiation of rifampicin-induced antibacterial activity against Acinetobacter baumannii ATCC 17978 assessed as rifampicin MIC at 2 to 8 microg/ml in high concentration of Ca++ and Mg++ containing media by Mueller-Hinton broth based assay; type: functional; details: dose 2-8 µg/ml
[29] = test system: Acinetobacter baumannii; assay: Potentiation of rifampicin-induced antibacterial activity against Acinetobacter baumannii 92247 assessed as rifampicin MIC at 16 microg/ml in high concentration of Ca++ and Mg++ containing media by Mueller-Hinton broth based assay; type: functional; details: dose 16 µg/ml
[30] = test system: Pseudomonas aeruginosa; assay: Antibacterial activity against Pseudomonas aeruginosa PAO1 in high concentration of Ca++ and Mg++ containing media by Mueller-Hinton broth based assay; type: functional
[31] = test system: Acinetobacter baumannii; assay: Potentiation of rifampicin-induced antibacterial activity against Acinetobacter baumannii 92247 assessed as fold change in rifampicin MIC at 16 microg/ml in high concentration of Ca++ and Mg++ containing media by Mueller-Hinton broth based assay; type: functional; details: dose 16 µg/ml
[32] = test system: Acinetobacter baumannii; assay: Potentiation of rifampicin-induced antibacterial activity against Acinetobacter baumannii 92247 assessed as fold change in rifampicin MIC at 2 to 8 microg/ml in high concentration of Ca++ and Mg++ containing media by Mueller-Hinton broth based assay; type: functional; details: dose 2-8 µg/ml

CCCCCCCCO[C@@H]1O[C@H](CN)[C@H](N)[C@H](OCc2ccc3ccccc3c2)[C@H]1N
fold change (FC) [1]: 64 | MIC [2]: 2 µg/mL | fold change (FC) [3]: 64 | MIC [4]: > 128 µg/mL | fold change (FC) [5]: 1 | MIC [6]: 64 µg/mL (≈ 149 µM) | MIC [7]: 16 µg/mL | MIC [8]: 16 µg/mL | fold change (FC) [9]: 64 | fold change (FC) [10]: 256 | MIC [11]: 16 µg/mL | fold change (FC) [12]: 8 | fold change (FC) [13]: 1 | fold change (FC) [14]: 1 | viability at 9 µM [15]: 46.4% | fold change (FC) [16]: 64 | fold change (FC) [17]: 64 | fold change (FC) [18]: 64 | fold change (FC) [19]: 2 | fold change (FC) [20]: 1 | fold change (FC) [21]: 1 | MIC [22]: 2 µg/mL | MIC [23]: 64 µg/mL (≈ 149 µM) | fold change (FC) [24]: 1 | viability at 9 µM [25]: 85% | MIC [26]: ≥ 64 µg/mL | MIC [27]: 4 µg/mL | MIC [28]: 4 µg/mL | MIC [29]: 16 µg/mL | MIC [30]: > 128 µg/mL | fold change (FC) [31]: 32 | fold change (FC) [32]: 2

From ChEMBL document CHEMBL5584201, “Amphiphilic tribasic galactosamines potentiate rifampicin in Gram-negative bacteria at low Mg++/Ca++concentrations” (Bioorg Med Chem Lett, 2024)
